One may read the EC50 as the midpoint of the concentration-response curve.

One test addresses T1, GPR3 (Homo sapiens, UniProt P46089).
T1 construct: host or cells: HEK293A, transient
Description: cAMP GloSensor 22F, GPR3-transfected HEK293A cells. Format: cell-based. The note with it: read-out: EC50 of cAMP decrease in GPR3-expressing cells. From the text:
(§1) Next, we used the classical cAMP GloSensor technology to assess the target selectivity profile of 33. […] In addition, we tested the effects of 33 on cAMP changes mediated by agonist-stimulated GPCRs phylogenetically close to GPR3 and coupling to Gs or Gi/o proteins. […]
(§2) conditioning and no constraints were applied. The poses were visually inspected and the most favorable one that coincides with the co-solved ligand according to the available structures was chosen.
(§3) Plasmids and molecular cloning
(§4) The H187-EPAC-FRET sensor7 was kindly provided by K. Jalink (The Netherlands Cancer Institute, Amsterdam, The Nether-lands). The BRET-based cAMP sensor CAMYEL8 was kindly provided by Laura Humphrys (University of Regensburg, Regens-burg, Germany). Plasmids encoding the conformational biosensors α2AAR- and β2AR-HaloTag/Nluc9 and the Gs heterotrimer dissociation sensor10 were previously described. The expression plasmid encoding N-terminally HA-tagged GPR3 (cat. no.
(§5) #GPR003TN00) on a pcDNA3.1+ vector was obtained from the cDNA resource center (cdna.org). The Nluc and HaloTag in-serts were amplified with overhanging restriction sites from β2AAR- HaloTag/Nluc and ligated to the full-length C-terminus or inserted into icl3 of GPR3, respectively, to obtain the conformational biosensor GPR3-HaloTag/Nluc. […]

The target of another test is T2, GPR6 (Homo sapiens, UniProt P46095).
T2 construct: expressed in transfected cells; host or cells: HEK293A, transient
In words: cAMP GloSensor 22F, GPR6-transfected HEK293A cells. The test is classed as cell-based.
Description: as §1, §2, §3, §4, §5

T1 sequence (P46089 whole entry): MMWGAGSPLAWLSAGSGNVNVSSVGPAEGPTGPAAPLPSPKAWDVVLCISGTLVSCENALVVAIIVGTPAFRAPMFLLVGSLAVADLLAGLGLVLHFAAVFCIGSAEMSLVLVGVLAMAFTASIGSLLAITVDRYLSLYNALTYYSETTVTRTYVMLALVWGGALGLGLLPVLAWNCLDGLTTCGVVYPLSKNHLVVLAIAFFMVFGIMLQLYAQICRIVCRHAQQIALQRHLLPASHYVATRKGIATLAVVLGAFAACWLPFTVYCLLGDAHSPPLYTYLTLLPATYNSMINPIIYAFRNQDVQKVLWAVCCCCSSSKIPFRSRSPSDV
T2 sequence (P46095 whole entry, species assumed): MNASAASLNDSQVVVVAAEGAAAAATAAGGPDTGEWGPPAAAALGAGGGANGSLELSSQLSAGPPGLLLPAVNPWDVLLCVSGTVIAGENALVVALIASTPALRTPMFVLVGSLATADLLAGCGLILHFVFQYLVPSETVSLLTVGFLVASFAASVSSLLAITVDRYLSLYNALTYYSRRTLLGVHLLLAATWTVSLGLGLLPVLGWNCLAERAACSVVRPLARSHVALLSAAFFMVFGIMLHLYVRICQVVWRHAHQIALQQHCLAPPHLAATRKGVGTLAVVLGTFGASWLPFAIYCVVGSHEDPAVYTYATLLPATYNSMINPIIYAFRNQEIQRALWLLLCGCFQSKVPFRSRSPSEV

On to `N=c1n(Cc2ccccc2)c2ccccc2n1CC1CC1` [compound 33], for which the EC50 on GPR3 was 2000 nM. Besides, at GPR6, the “receptor-specific change in cAMP, GPR6” value is on record as “no receptor-specific changes in cAMP levels below 100 μM”.
